Values of other authors, collected in US20130210879A1, “FORMULATIONS OF BENDAMUSTINE” (priority 2012, published 2013).

In the case of `Cn1c(CCCC(=O)O)nc2cc(N(CCCl)CCCl)ccc21` [Bendamustine], the stability in water is given as “measured in hours”.
